Experimental data from patent US20250144067A1, “PERSONALIZED STARVATION THERAPY FOR CANCER” (Faeth Therapeutics, Inc., priority 2021, published 2025).
Counter-ions that a name gives are not always drawn. Like-named read-outs stand apart in the source and are kept apart here.

Key:
[1] = tested on: NCI-H292 lung cancer cells; assay: FDA drug screening, complete media vs cholesterol-free media without statin (TABLE 1); type: cell-based, human
[2] = tested on: NCI-H292 lung cancer cells; assay: FDA drug screening, complete media vs cholesterol-free media with simvastatin (TABLE 2); type: cell-based, human
[3] = NCI-H292 cells, cholesterol-free media without statin, FDA drug library screen
[4] = NCI-H292 cells, complete media, FDA drug library screen
[5] = complete vs cholesterol-free media, >0 enhanced anti-cancer activity, about 0 neutral, <0 antagonist
[6] = NCI-H292 cells, FDA drug library screen, cholesterol-free media with simvastatin 0.04 μM
[7] = NCI-H292 cells, FDA drug library screen, complete media
[8] = complete media vs cholesterol-free media + simvastatin (0.04 μM), >0 enhanced anti-cancer activity, about 0 neutral, <0 antagonist
[9] = NCI-H292 cells, cholesterol-free media with simvastatin 0.04 μM, cell growth value in FDA drug screen
[10] = NCI-H292 cells, complete media, cell growth value in FDA drug screen
[11] = complete media minus cholesterol-free media + simvastatin, >0 enhanced anti-cancer activity, about 0 neutral, <0 antagonist
[12] = Complete minus Cholesterol-free, […]
[13] = NCI-H292 cells, cholesterol-free media without statin
[14] = complete media vs cholesterol-free media + simvastatin (0.04 μM), […]
[15] = NCI-H292 cells, FDA library drug in cholesterol-free media with simvastatin 0.04 μM
[16] = NCI-H292 cells, FDA library drug in complete media
[17] = Complete minus Cholesterol-free, greater than 0 enhanced anti-cancer activity, about 0 neutral, below 0 antagonist
[18] = NCI-H292 cells, FDA drug library screen, cholesterol-free media without statin
[19] = Complete minus Cholesterol-free, >0 enhanced anti-cancer activity, about 0 neutral, <0 antagonist
[20] = NCI-H292 cells, drug in cholesterol-free media with simvastatin 0.04 μM
[21] = NCI-H292 cells, drug in complete media
[22] = complete vs cholesterol-free media, greater than 0 enhanced anti-cancer activity, about 0 neutral, below 0 antagonists
[23] = Complete minus Cholesterol-free, greater than 0 enhanced anti-cancer activity, about 0 neutral, below 0 antagonists
[24] = NCI-H292 cells in cholesterol-free media without statin
[25] = NCI-H292 cells in complete media
[26] = complete media minus cholesterol-free media + simvastatin, […]

Compound: N#CC(c1ccc(Cl)cc1)c1c(Cl)cc(-n2ncc(=O)[nH]c2=O)cc1Cl (stereo not drawn) [Diclazuril]
- Cholesterol-free [1, 3]: 0.7362
- Complete [1, 4]: 1.131
- Difference [1, 5]: 0.39
- Cholesterol-free media + simvastatin (0.04 μM) [2, 6]: 1.052
- Complete Media [2, 7]: 0.9766
- Difference [2, 8]: −0.08

Compound: CO/N=C(\C(=O)N[C@@H]1C(=O)N2C(C(=O)O)=C(Cn3ccc(=N)n3CCO)CS[C@H]12)c1csc(N)n1.O=S(=O)(O)O [Cefoselis (sulfate)]
- Cholesterol-free [1, 3]: 0.955
- Complete [1, 4]: 1.116
- Difference [1, 5]: 0.16
- Cholesterol-free media + simvastatin (0.04 μM) [2, 9]: 1.07
- Complete Media [2, 10]: 1.107
- Difference [2, 11]: 0.04

Compound: Cl.NCCCC[C@H](N)C(=O)O [L-Lysine hydrochloride]
- Difference [1, 12]: −0.25
- Cholesterol-free [1, 13]: 1.006
- Complete ([1]; NCI-H292 cells, complete media): 0.7519
- Cholesterol-free media + simvastatin (0.04 μM) [2, 6]: 1.192
- Complete Media [2, 7]: 1.079
- Difference [2, 14]: −0.11

Compound: C=C1CC[C@@H]2[C@](C)(CO)[C@H](O)CC[C@@]2(C)[C@@H]1/C=C/C1=CCOC1=O [Dehydroandrographolide]
- Difference [1, 12]: −0.24
- Cholesterol-free [1, 13]: 0.9695
- Complete ([1]; NCI-H292 cells, complete media): 0.7339
- Cholesterol-free media + simvastatin (0.04 μM) [2, 15]: 1.79
- Complete Media [2, 16]: 1.432
- Difference [2, 14]: −0.36

Compound: CC(C)(N)CNC(=O)C[C@H]1CC[C@]2(CC1)OO[C@]1(O2)C2CC3CC(C2)CC1C3 [Arterolane]
- Difference [1, 17]: −0.17
- Cholesterol-free [1, 18]: 1.167
- Complete [1, 7]: 0.9934
- Cholesterol-free media + simvastatin (0.04 μM) [2, 6]: 1.129
- Complete Media [2, 7]: 1.314
- Difference [2, 11]: 0.19

Compound: O=C(O)Cc1ccc(-c2ccccc2)cc1 [Felbinac]
- Cholesterol-free [1, 3]: 0.7335
- Complete [1, 4]: 1.335
- Difference [1, 5]: 0.60
- Cholesterol-free media + simvastatin (0.04 μM) ([2]; NCI-H292 cells, cholesterol-free media with simvastatin 0.04 μM, FDA drug library screen (TABLE 2)): 1.215
- Complete Media ([2]; NCI-H292 cells, complete media, FDA drug library screen (TABLE 2)): 1.199
- Difference ([2]; complete media minus cholesterol-free media + simvastatin (0.04 μM), >0 enhanced anti-cancer activity, about 0 neutral, <0 antagonist): −0.02

Compound: C[C@@H]1O[C@@H](OC[C@H]2O[C@@H](Oc3c(-c4ccc(OCCO)c(OCCO)c4)oc4cc(OCCO)cc(O)c4c3=O)[C@H](O)[C@@H](O)[C@@H]2O)[C@H](O)[C@H](O)[C@H]1O [Troxerutin]
- Difference [1, 17]: −0.13
- Cholesterol-free [1, 18]: 1.15
- Complete [1, 7]: 1.021
- Cholesterol-free media + simvastatin (0.04 μM) [2, 9]: 0.8482
- Complete Media [2, 10]: 0.9455
- Difference [2, 11]: 0.10

Compound: O=C(O)CC(O)(CC(=O)O)C(=O)O
- Difference [1, 19]: −0.20
- Cholesterol-free [1, 13]: 1.776
- Complete ([1]; NCI-H292 cells, complete media): 1.574
- Cholesterol-free media + simvastatin (0.04 μM) [2, 9]: 0.864
- Complete Media [2, 10]: 0.9089
- Difference [2, 11]: 0.04

Compound: C[C@]12CCC(=O)C=C1CC[C@@H]1[C@@H]2[C@@H](O)C[C@@]2(C)[C@H]1CC[C@]2(O)C(=O)COC(=O)CCC1CCCC1 [Hydrocortisone cypionate]
- Cholesterol-free [1]: 1.099
- Complete [1]: 0.6914
- Difference [1]: −0.41
- Cholesterol-free media + simvastatin (0.04 μM) [2]: 0.7228
- Complete Media [2]: 0.7215
- Difference [2]: 0.00

Compound: CN[C@H]1C(=O)N[C@@H]2Cc3ccc(cc3)Oc3cc4cc(c3O[C@@H]3O[C@H](C(=O)O)[C@@H](O)[C@H](O)[C@H]3NC(=O)CCCCCCCCC(C)C)Oc3ccc(cc3Cl)[C@@H](O)[C@@H]3NC(=O)[C@H](NC(=O)[C@@H]4NC(=O)[C@@H](NC2=O)c2cc(cc(O)c2Cl)Oc2cc1ccc2O)c1ccc(O)c(c1)-c1c(O[C@H]2O[C@H](CO)[C@@H](O)[C@H](O)[C@@H]2O)cc(O)cc1[C@@H](C(=O)NCCCN(C)C)NC3=O [Dalbavancin (hydrochloride)]
- Difference [1, 12]: −0.27
- Cholesterol-free [1, 13]: 1.639
- Complete ([1]; NCI-H292 cells, complete media): 1.366
- Cholesterol-free media + simvastatin (0.04 μM) [2, 20]: 1.058
- Complete Media [2, 21]: 0.8779
- Difference [2, 14]: −0.18

Compound: Cn1nnc2c(C(N)=O)ncn2c1=O [Temozolomide]
- Cholesterol-free [1, 13]: 1.265
- Complete ([1]; NCI-H292 cells, complete media): 0.9503
- Difference [1, 22]: −0.31
- Cholesterol-free media + simvastatin (0.04 μM) [2, 6]: 0.984
- Complete Media [2, 7]: 0.8242
- Difference [2, 8]: −0.16

Compound: CC(O)(CS(=O)(=O)c1ccc(F)cc1)C(=O)Nc1ccc(C#N)c(C(F)(F)F)c1 (stereo not drawn) [Bicalutamide]
- Difference [1, 19]: 0.00
- Cholesterol-free [1, 3]: 1.018
- Complete [1, 4]: 1.016
- Cholesterol-free media + simvastatin (0.04 μM) [2, 6]: 1.219
- Complete Media [2, 7]: 1.09
- Difference [2, 8]: −0.13

Compound: C[N+](C)(C)CCO.O=C([O-])C(O)C(O)C(=O)O (stereo not drawn) [Choline (bitartrate)]
- Cholesterol-free [1]: 1.646
- Complete [1]: 0.8603
- Difference [1]: −0.79
- Cholesterol-free media + simvastatin (0.04 μM) [2]: 1.34
- Complete Media [2]: 1.054
- Difference [2]: −0.29

Compound: CN(C)CCOC(=O)C(c1ccccc1)C1(O)CCCC1 (stereo not drawn) [Cyclopentolate (hydrochloride)]
- Difference [1, 23]: −0.56
- Cholesterol-free [1, 24]: 1.412
- Complete [1, 25]: 0.8527
- Cholesterol-free media + simvastatin (0.04 μM) [2, 20]: 1.064
- Complete Media [2, 21]: 0.8727
- Difference [2, 8]: −0.19

Compound: NCCCC(O)(P(=O)(O)O)P(=O)(O)O [Alendronic acid]
- Cholesterol-free [1, 13]: 1.207
- Complete ([1]; NCI-H292 cells, complete media): 0.7802
- Difference [1, 22]: −0.43
- Cholesterol-free media + simvastatin (0.04 μM) [2, 9]: 0.8926
- Complete Media [2, 10]: 0.9547
- Difference [2, 11]: 0.06

Compound: c1ccc2c(c1)CCCC2C1=NCCN1 (stereo not drawn) [Tetrahydrozoline (hydrochloride)]
- Difference [1, 19]: −0.03
- Cholesterol-free [1, 3]: 0.9833
- Complete [1, 4]: 0.9541
- Cholesterol-free media + simvastatin (0.04 μM) [2, 6]: 1.06
- Complete Media [2, 7]: 0.9332
- Difference [2, 8]: −0.13

Compound: CC(=O)Oc1cc(C(F)(F)F)ccc1C(=O)O [Triflusal]
- Cholesterol-free [1, 3]: 1.019
- Complete [1, 4]: 1.117
- Difference [1, 5]: 0.10
- Cholesterol-free media + simvastatin (0.04 μM) [2, 6]: 1.154
- Complete Media [2, 7]: 1.083
- Difference [2, 8]: −0.07

Compound: Guanabenz (Acetate)
- Cholesterol-free [1]: 0.8753
- Complete [1]: 0.6073
- Difference [1]: −0.27
- Cholesterol-free media + simvastatin (0.04 μM) [2]: 1.185
- Complete Media [2]: 0.9697
- Difference [2]: −0.22

Compound: Heparin (sodium salt) (MW 15 kDa)
- Difference [1, 12]: −0.29
- Cholesterol-free [1, 13]: 1.451
- Complete ([1]; NCI-H292 cells, complete media): 1.156
- Complete Media [2, 7]: 1.339
- Difference [2, 26]: 0.23

Compound: C#C[C@]1(O)CC[C@H]2[C@@H]3CCc4cc(OC)ccc4[C@H]3CC[C@@]21C [Mestranol]
- Difference [1, 19]: −0.06
- Cholesterol-free [1, 3]: 0.9912
- Complete [1, 4]: 0.9277
- Cholesterol-free media + simvastatin (0.04 μM) [2, 15]: 1.197
- Complete Media [2, 16]: 0.9303
- Difference [2, 8]: −0.27

Compound: CN1[C@@H]2CC[C@H]1C[C@@H](OC(=O)C(CO)c1ccccc1)C2 (stereo partly drawn) [Atropine (sulfate monohydrate)]
- Complete [1]: 1.139
- Difference [1]: 0.08
- Cholesterol-free media + simvastatin (0.04 μM) [2]: 0.6465
- Complete Media [2]: 0.6938
- Difference [2]: 0.05

Compound: Cc1cccc(C(C)c2cnc[nH]2)c1C (stereo not drawn) [Medetomidine]
- Difference [1, 17]: −0.10
- Cholesterol-free [1, 18]: 1.034
- Complete [1, 7]: 0.9342
- Cholesterol-free media + simvastatin (0.04 μM) [2, 15]: 1.094
- Complete Media [2, 16]: 0.8138
- Difference [2, 8]: −0.28

Compound: N[C@H]1C(O)O[C@H](CO)[C@@H](O)[C@@H]1O (stereo partly drawn) [Glucosamine]
- Cholesterol-free [1, 13]: 1.17
- Complete ([1]; NCI-H292 cells, complete media): 0.7725
- Difference [1, 22]: −0.40
- Cholesterol-free media + simvastatin (0.04 μM) [2, 15]: 1.916
- Difference [2, 8]: −0.77

Compound: COC1=CC(=O)C[C@@H](C)[C@]12Oc1c(Cl)c(OC)cc(OC)c1C2=O [Griseofulvin]
- Difference [1, 23]: −0.63
- Cholesterol-free [1, 24]: 1.326
- Complete [1, 25]: 0.6963
- Cholesterol-free media + simvastatin (0.04 μM) [2, 20]: 1.385
- Complete Media [2, 21]: 1.224
- Difference [2, 8]: −0.16

Compound: C=CC[C@]1(O)CC[C@H]2[C@@H]3CCC4=CCCC[C@@H]4[C@H]3CC[C@@]21C [Allylestrenol]
- Difference [1, 12]: −0.56
- Cholesterol-free [1, 24]: 1.739
- Complete [1, 25]: 1.181
- Cholesterol-free media + simvastatin (0.04 μM) ([2]; NCI-H292 cells, cholesterol-free media with simvastatin 0.04 μM, […]): 1.288
- Complete Media ([2]; NCI-H292 cells, complete media, […]): 1.384
- Difference [2, 26]: 0.10

Compound: CC(=C(CCO)SSCC1CCCO1)N(C=O)Cc1cnc(C)nc1N (stereo in doubt) [Fursultiamine]
- Cholesterol-free [1]: 1.191
- Complete [1]: 1.162
- Difference [1]: −0.03
- Cholesterol-free media + simvastatin (0.04 μM) [2]: 1.842
- Complete Media [2]: 1.268
- Difference [2]: −0.57

Compound: Cc1cc(C2=NOC(c3cc(Cl)cc(Cl)c3)(C(F)(F)F)C2)ccc1C(=O)NCC(=O)NCC(F)(F)F (stereo not drawn) [Fluralaner]
- Cholesterol-free [1, 3]: 0.6434
- Complete [1, 4]: 1.375
- Difference ([1]; complete vs cholesterol-free media, […]): 0.73
- Cholesterol-free media + simvastatin (0.04 μM) [2, 20]: 1.609
- Complete Media [2, 21]: 1.41
- Difference [2, 14]: −0.20
